Columns and labels:
velvetleaf [1] = experiment: Test A pre-/postemergence herbicide test; assay type: in vivo, Abutilon theophrasti
Method in brief: (§1)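 Pre: seeded sandy loam, directed soil spray, compound in non-phytotoxic solvent + surfactant. Post: 1–2-leaf plants (2–10 cm), sprayed to runoff. Greenhouse ~10 d; visual injury vs untreated, 0–100 scale.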

kochia = experiment: Test C pre-/postemergence herbicide test; assay type: in vivo, Kochia scoparia; settings: for Kochia plant response rating: 500 g ai/ha
Method in brief: (§2)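 Visual injury scores run from 0 (no effect) to 100 (complete control), assessed relative to untreated controls 12 to 14 days after treatment in the greenhouse. Chemicals were formulated in a non-phytotoxic solvent mixture with surfactant and applied to soil after planting or to emerged plants at the 1- to 4-leaf stage.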

rice = experiment: Test C flooded paddy test; assay type: in vivo, Oryza sativa; settings: for Plant response rating, Rice: visual rating after 12 to 14 days
Method in brief: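 Postemergence sprays applied to plants 2 to 18 cm tall (1- to 4-leaf stage); paddy species grown to 2-leaf stage under flooding. After 12 to 14 days in greenhouse, visual rating versus untreated controls on 0–100 scale (0 no effect, 100 complete control).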

morningglory = experiment: Test A pre-/postemergence herbicide test; assay type: in vivo, Ipomoea spp.
Method in brief: as §1

Surinam grass = experiment: Test C pre-/postemergence herbicide test; assay type: in vivo, Urochloa decumbens; settings: for Surinam Grass plant response rating: 500 g ai/ha
Method in brief: as §2

giant foxtail = experiment: Test A pre-/postemergence herbicide test; assay type: in vivo, Setaria faberi
Method in brief: as §1

corn = experiment: Test C pre-/postemergence herbicide test; assay type: in vivo, Zea mays; settings: for Corn plant response rating: 500 g ai/ha
Method in brief: as §2

ducksalad = experiment: Test C flooded paddy test; assay type: in vivo, Heteranthera limosa; settings: for Plant response rating, Ducksalad: visual rating after 12 to 14 days
pigweed = experiment: Test C pre-/postemergence herbicide test; assay type: in vivo, Amaranthus retroflexus; settings: for Pigweed plant response rating: 500 g ai/ha
Method in brief: as §2

lambsquarters = experiment: Test C pre-/postemergence herbicide test; assay type: in vivo, Chenopodium album; settings: for Lambsquarters plant response rating: 500 g ai/ha
Method in brief: as §2

velvetleaf [2] = experiment: Test C pre-/postemergence herbicide test; assay type: in vivo, Abutilon theophrasti; settings: for Velvetleaf plant response rating: 500 g ai/ha
Method in brief: as §2

[3] = Postemergence, 500 g ai/ha, 0 to 100 scale, 0 no effect, 100 complete control
[4] = Postemergence, 2000 g ai/ha, 0 to 100 scale, 0 no effect, 100 complete control
[5] = Preemergence, 500 g ai/ha, visual rating, 0 to 100 scale (0 no effect, 100 complete control)
[6] = Preemergence, 2000 g ai/ha, 0 to 100 scale, 0 no effect, 100 complete control
[7] = 125 g ai/ha, scale 0-100, preemergence
[8] = Postemergence, 125 g ai/ha, scale 0 to 100, 0 no effect, 100 complete control
[9] = Postemergence, 250 g ai/ha, scale 0 to 100, 0 no effect, 100 complete control
[10] = Preemergence, scale 0 to 100, 0 no effect, 100 complete control
[11] = postemergence, 62 g ai/ha, scale 0 to 100
[12] = 62 g ai/ha, scale 0 to 100 (0 no effect, 100 complete control)
[13] = 125 g ai/ha, scale of 0 to 100, 0 is no effect, 100 is complete control
[14] = 250 g ai/ha, scale 0 to 100 (0 no effect, 100 complete control)
[15] = 500 g ai/ha, scale 0 to 100 (0 no effect, 100 complete control)
[16] = 250 g ai/ha, scale 0 to 100 (0 no effect, 100 complete control), visual, 12 to 14 days, preemergence
[17] = postemergence, 125 g ai/ha, scale 0 to 100
[18] = Postemergence, 250 g ai/ha, 0 to 100 scale, 0 no effect, 100 complete control
[19] = Postemergence, 1000 g ai/ha, 0 to 100 scale, 0 no effect, 100 complete control
[20] = Preemergence, 1000 g ai/ha, visual rating, 0 to 100 scale (0 no effect, 100 complete control)
[21] = preemergence, 250 g ai/ha, visual injury, 0 to 100 scale (0 no effect, 100 complete control)

With C=Cn1nc(C(C)(C)C)cc1C(=O)Nc1cccc(C(=O)N(CC)CC)c1 [Compound 34] the “Plant response rating, Velvetleaf” value (velvetleaf [1]; [3]) was 20, the “Plant response rating, Velvetleaf” value (velvetleaf [1]; [4]) was 30 and the “Velvetleaf plant response rating” value (velvetleaf [1]; [5]) was 20. The “Velvetleaf plant response rating” value (velvetleaf [1]; [6]) was 25, the “Plant response rating (0 = no effect, 100 = complete control), Kochia” value (kochia; 62 g ai/ha, preemergence) was 90 and the “Plant response rating, Kochia” value (kochia; [7]) was 90. The “Kochia plant response rating” value (kochia; Postemergence, scale 0 to 100) was 90, the “Plant response rating, Kochia” value (kochia; [8]) was 90 and the “Plant response rating, Kochia” value (kochia; [9]) was 90. For the same compound, the “Kochia plant response rating” value (kochia; [10]) was 100, the “Plant response rating, Kochia” value (kochia; [11]) was 80 and the “Rice plant response rating” value (rice; [12]) was 0. The “Rice plant response rating” value (rice; [13]) was 0, the “Plant response rating, Rice” value (rice; [14]) was 50 and the “Plant response rating, Rice” value (rice; [15]) was 55. For the same compound, the “Plant response rating, Morningglory” value (morningglory; [3]) was 10, the “Plant response rating, Morningglory” value (morningglory; [4]) was 20 and the “Morningglory plant response rating” value (morningglory; [5]) was 35. For the same compound, the “Morningglory plant response rating” value (morningglory; [6]) was 50, the “Plant response rating (0 = no effect, 100 = complete control), Surinam Grass” value (Surinam grass; 62 g ai/ha, preemergence) was 10 and the “Plant response rating, Surinam Grass” value (Surinam grass; [16]) was 60. For the same compound, the “Surinam Grass plant response rating” value (Surinam grass; Postemergence, scale 0 to 100) was 70, the “Plant response rating, Surinam Grass” value (Surinam grass; [9]) was 50 and the “Surinam Grass plant response rating” value (Surinam grass; [10]) was 70. For the same compound, the “Plant response rating, Surinam Grass” value (Surinam grass; [17]) was 30, the “Plant response rating, Surinam Grass” value (Surinam grass; [11]) was 20 and the “Plant response rating, Foxtail, Giant” value (giant foxtail; [3]) was 30. The “Plant response rating, Foxtail, Giant” value (giant foxtail; [4]) was 40, the “Foxtail, Giant plant response rating” value (giant foxtail; [5]) was 40 and the “Foxtail, Giant plant response rating” value (giant foxtail; [6]) was 85. For the same compound, the “Plant response rating (0 = no effect, 100 = complete control), Corn” value (corn; 62 g ai/ha, preemergence) was 0, the “Plant response rating, Corn” value (corn; [7]) was 0 and the “Plant response rating, Corn” value (corn; [16]) was 0. For the same compound, the “Corn plant response rating” value (corn; Postemergence, scale 0 to 100) was 70, the “Plant response rating, Corn” value (corn; [8]) was 30 and the “Plant response rating, Corn” value (corn; [9]) was 50. The “Corn plant response rating” value (corn; [10]) was 0, the “Plant response rating, Corn” value (corn; [11]) was 20 and the “Ducksalad plant response rating” value (ducksalad; [12]) was 15. The “Ducksalad plant response rating” value (ducksalad; [13]) was 25, the “Plant response rating, Ducksalad” value (ducksalad; [14]) was 25 and the “Plant response rating, Ducksalad” value (ducksalad; [15]) was 75. The “Plant response rating (0 = no effect, 100 = complete control), Pigweed” value (pigweed; 62 g ai/ha, preemergence) was 100, the “Plant response rating, Pigweed” value (pigweed; [16]) was 100 and the “Pigweed plant response rating” value (pigweed; Postemergence, scale 0 to 100) was 100. For the same compound, the “Plant response rating, Pigweed” value (pigweed; [9]) was 100, the “Pigweed plant response rating” value (pigweed; [10]) was 100 and the “Plant response rating, Pigweed” value (pigweed; [17]) was 100. For the same compound, the “Plant response rating, Pigweed” value (pigweed; [11]) was 100, the “Plant response rating (0 = no effect, 100 = complete control), Lambsquarters” value (lambsquarters; 62 g ai/ha, preemergence) was 90 and the “Plant response rating, Lambsquarters” value (lambsquarters; [7]) was 100. The “Plant response rating, Lambsquarters” value (lambsquarters; [16]) was 100, the “Lambsquarters plant response rating” value (lambsquarters; Postemergence, scale 0 to 100) was 100 and the “Plant response rating, Lambsquarters” value (lambsquarters; [9]) was 100. For the same compound, the “Lambsquarters plant response rating” value (lambsquarters; [10]) was 100, the “Plant response rating, Lambsquarters” value (lambsquarters; [17]) was 80 and the “Plant response rating, Lambsquarters” value (lambsquarters; [11]) was 40. The “Plant response rating (0 = no effect, 100 = complete control), Velvetleaf” value (velvetleaf [2]; 62 g ai/ha, preemergence) was 0, the “Plant response rating, Velvetleaf” value (velvetleaf [2]; [16]) was 90 and the “Velvetleaf plant response rating” value (velvetleaf [2]; Postemergence, scale 0 to 100) was 70. The “Plant response rating, Velvetleaf” value (velvetleaf [2]; [9]) was 70, the “Velvetleaf plant response rating” value (velvetleaf [2]; [10]) was 100 and the “Plant response rating, Velvetleaf” value (velvetleaf [2]; [17]) was 70. For the same compound, the “Plant response rating, Velvetleaf” value (velvetleaf [2]; [11]) was 20.

In the case of CCNC(=O)c1cccc(NC(=O)c2cc(C(C)(C)C)nn2CC(F)(F)F)c1 [Compound 31], the “Velvetleaf plant response rating” value (velvetleaf [1]; [18]) was 20, the “Plant response rating, Velvetleaf” value (velvetleaf [1]; [19]) was 30 and the “Velvetleaf plant response rating” value (velvetleaf [1]; [20]) was 35. For the same compound, the “Velvetleaf plant response rating” value (velvetleaf [1]; [21]) was 10, the “Plant response rating (0 = no effect, 100 = complete control), Kochia” value (kochia; 62 g ai/ha, preemergence) was 0 and the “Plant response rating, Kochia” value (kochia; [7]) was 80. The “Plant response rating, Kochia” value (kochia; [16]) was 100, the “Kochia plant response rating” value (kochia; Postemergence, scale 0 to 100) was 70 and the “Plant response rating, Kochia” value (kochia; [8]) was 70. For the same compound, the “Plant response rating, Kochia” value (kochia; [9]) was 70, the “Kochia plant response rating” value (kochia; [10]) was 100 and the “Plant response rating, Kochia” value (kochia; [11]) was 70. For the same compound, the “Rice plant response rating” value (rice; [12]) was 0, the “Rice plant response rating” value (rice; [13]) was 10 and the “Plant response rating, Rice” value (rice; [14]) was 40. The “Plant response rating, Rice” value (rice; [15]) was 50, the “Morningglory plant response rating” value (morningglory; [18]) was 5 and the “Plant response rating, Morningglory” value (morningglory; [19]) was 20. The “Morningglory plant response rating” value (morningglory; [20]) was 55, the “Morningglory plant response rating” value (morningglory; [21]) was 0 and the “Plant response rating (0 = no effect, 100 = complete control), Surinam Grass” value (Surinam grass; 62 g ai/ha, preemergence) was 10. The “Plant response rating, Surinam Grass” value (Surinam grass; [16]) was 30, the “Surinam Grass plant response rating” value (Surinam grass; Postemergence, scale 0 to 100) was 50 and the “Plant response rating, Surinam Grass” value (Surinam grass; [9]) was 50. For the same compound, the “Surinam Grass plant response rating” value (Surinam grass; [10]) was 60, the “Plant response rating, Surinam Grass” value (Surinam grass; [17]) was 40 and the “Plant response rating, Surinam Grass” value (Surinam grass; [11]) was 30. For the same compound, the “Foxtail, Giant plant response rating” value (giant foxtail; [18]) was 45, the “Plant response rating, Foxtail, Giant” value (giant foxtail; [19]) was 70 and the “Foxtail, Giant plant response rating” value (giant foxtail; [20]) was 50. The “Foxtail, Giant plant response rating” value (giant foxtail; [21]) was 20, the “Plant response rating (0 = no effect, 100 = complete control), Corn” value (corn; 62 g ai/ha, preemergence) was 0 and the “Plant response rating, Corn” value (corn; [7]) was 20. For the same compound, the “Corn plant response rating” value (corn; Postemergence, scale 0 to 100) was 50, the “Plant response rating, Corn” value (corn; [8]) was 40 and the “Plant response rating, Corn” value (corn; [9]) was 40. The “Plant response rating, Corn” value (corn; [11]) was 40, the “Ducksalad plant response rating” value (ducksalad; [12]) was 10 and the “Ducksalad plant response rating” value (ducksalad; [13]) was 20. For the same compound, the “Plant response rating, Ducksalad” value (ducksalad; [14]) was 40, the “Plant response rating, Ducksalad” value (ducksalad; [15]) was 60 and the “Plant response rating (0 = no effect, 100 = complete control), Pigweed” value (pigweed; 62 g ai/ha, preemergence) was 100. For the same compound, the “Plant response rating, Pigweed” value (pigweed; [16]) was 100, the “Pigweed plant response rating” value (pigweed; Postemergence, scale 0 to 100) was 100 and the “Plant response rating, Pigweed” value (pigweed; [9]) was 100. The “Pigweed plant response rating” value (pigweed; [10]) was 100, the “Plant response rating, Pigweed” value (pigweed; [17]) was 90 and the “Plant response rating, Pigweed” value (pigweed; [11]) was 90. For the same compound, the “Plant response rating (0 = no effect, 100 = complete control), Lambsquarters” value (lambsquarters; 62 g ai/ha, preemergence) was 90, the “Plant response rating, Lambsquarters” value (lambsquarters; [7]) was 100 and the “Plant response rating, Lambsquarters” value (lambsquarters; [16]) was 100. For the same compound, the “Lambsquarters plant response rating” value (lambsquarters; Postemergence, scale 0 to 100) was 90, the “Plant response rating, Lambsquarters” value (lambsquarters; [9]) was 90 and the “Lambsquarters plant response rating” value (lambsquarters; [10]) was 100. The “Plant response rating, Lambsquarters” value (lambsquarters; [17]) was 80, the “Plant response rating, Lambsquarters” value (lambsquarters; [11]) was 80 and the “Plant response rating (0 = no effect, 100 = complete control), Velvetleaf” value (velvetleaf [2]; 62 g ai/ha, preemergence) was 20. The “Plant response rating, Velvetleaf” value (velvetleaf [2]; [16]) was 100, the “Velvetleaf plant response rating” value (velvetleaf [2]; Postemergence, scale 0 to 100) was 70 and the “Plant response rating, Velvetleaf” value (velvetleaf [2]; [9]) was 70. The “Velvetleaf plant response rating” value (velvetleaf [2]; [10]) was 100, the “Plant response rating, Velvetleaf” value (velvetleaf [2]; [17]) was 60 and the “Plant response rating, Velvetleaf” value (velvetleaf [2]; [11]) was 50.

— patent US20060069132A1, “Azolecarboxamide herbicides” (priority 2004, published 2006)
